Here are results for twelve compounds from patent US20080027042A1, “Novel Aminopyridine Derivatives Having Aurora a Selective Inhibitory Action” (priority 2004, published 2008).

pIC50: −log10 of the molar value.

One test deals with T1, Aurora A (Homo sapiens, UniProt O14965).
T1 construct: histidine tag (N); made in house; host or cells: Escherichia coli BL21-CodonPlus(DE3)-RIL
T1 sequence (O14965 1-403): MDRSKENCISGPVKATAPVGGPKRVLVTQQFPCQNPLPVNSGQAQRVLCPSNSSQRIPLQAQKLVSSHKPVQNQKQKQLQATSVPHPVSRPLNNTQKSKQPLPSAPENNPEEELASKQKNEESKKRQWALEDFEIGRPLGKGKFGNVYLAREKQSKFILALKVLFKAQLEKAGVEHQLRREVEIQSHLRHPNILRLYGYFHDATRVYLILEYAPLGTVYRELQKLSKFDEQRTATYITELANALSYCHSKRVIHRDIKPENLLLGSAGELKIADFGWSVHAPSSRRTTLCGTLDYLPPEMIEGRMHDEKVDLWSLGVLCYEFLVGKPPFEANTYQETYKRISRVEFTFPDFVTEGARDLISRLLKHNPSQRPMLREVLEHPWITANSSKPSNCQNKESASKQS
Kind of test: Aurora A inhibitory action (33P-ATP kinase assay, Kemptide substrate). It is filed as biochemical. Conditions: 20 μM ATP, 30° C., 20 minutes. In short, it runs like this: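 His-tagged Aurora A expressed in E. coli, Ni-purified; reaction in 50 mM Tris pH 7.4, 15 mM Mg acetate, 0.2 mM EDTA with 100 μM Kemptide, 20 μM ATP plus [γ-33P]ATP, 20 min at 30 °C. Phosphopeptide captured on P81 filters and counted by scintillation; DMSO control.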

Test [1] relates to Human cervical cancer cells (HeLa S3). Kind of test: Effect by combined use of drugs in cells (with paclitaxel), WST-8 method. It is filed as cell-based. The conditions noted are these: three days; for inhibition at 1 µM: HeLa S3, compound 1.0 μM alone; for inhibition at 3 µM: HeLa S3, compound 3.0 μM alone. From the text: Method for Judging the Effect by Combined Use of Drugs in Cells
Fetal calf serum (FCS) was purchased from Moregate Biotech, DMEM medium from Invitrogen Corp., paclitaxel (tradename: Taxol) from Sigma-Aldrich, Inc., and WST-8 from Kishida Chemical Co., Ltd.
(§1) Human cervical cancer cells (HeLa S3) were obtained from the American Type Culture Collection (ATCC).
(§2) c) Method of Judging the Effect
Cells were suspended in a DMEM medium containing 10% FCS, and the cell suspension was dispensed to two 96-well plastic plates at a rate of 750 cells/100 microliters per well. The plates were incubated overnight in 5% CO2-95% air at 37° C. A drug was subjected to graded dilution in dimethylsulfoxide and flurther diluted with DMSO or with a DMEM medium containing 10% FCS and also containing 2 nM paclitaxel. Then, the dilutions were each dispensed to one of the plates on which cells had been disseminated, at a rate of 100 microliters per well. The final concentration of paclitaxel at this stage was 1 nM. Also, the concentrations in the case of sole administration of the compound according to the invention were 0.03, 0.1, 0.3, 1 and 3 μM. The plates were incubated for further three days in 5% CO2-95% air at 37° C. Cell growth after incubation was measured by the WST-8 method (H. Tominaga, et al., Anal. Commun., 36, 47-50 (1999)). Here, the WST-8 method refers to a method in which 20 microliters of a WST-8 reagent solution is added to each well, incubation is conducted at 37° C. for 45 minutes, the plate is stirred, and the amount of formazan produced is measured by a colorimetric method to determine the inhibitory rate of the drug. The growth inhibitory effects of paclitaxel and of the compound according to the invention were determined, with the value obtained in sole treatment of DMSO being defined as 0%.
For orientation: Tetrazolium dyes change colour on reduction, which living cells bring about.

The target in a further test is T2, Aurora B (Homo sapiens, UniProt Q96GD4).
T2 construct: histidine tag (N); made in house; host or cells: Escherichia coli BL21-CodonPlus(DE3)-RIL
Briefly: Aurora B inhibitory action (33P-ATP kinase assay, Kemptide substrate). The conditions noted are these: 100 μM ATP, 30° C., 20 minutes. The class given is biochemical. In short, it runs like this: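 His-tagged Aurora B expressed in E. coli, reacted with 100 μM Kemptide, 100 μM ATP plus [γ-33P]ATP in Tris pH 7.4, 15 mM Mg acetate, 0.2 mM EDTA, 30 °C, 20 min. Peptide captured on P81 filters for scintillation counting; compounds added from DMSO dilutions.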

Test [2] has as its system Human cervical cancer cells (HeLa S3). Kind of test: Cell growth inhibitory effect, WST-8 method. It is filed as cell-based. The conditions noted are these: 72 h, HeLa S3, three days incubation.
Excerpt: Method for Judging the Pharmaceutical Effect Using cells
Fetal calf serum (FCS) was purchased from Moregate Biotech, and DMEM medium was purchased from Invitrogen Corp. WST-8 was purchased from Kishida Chemical Co., Ltd.
as §1, §2
Cells were suspended in a DMEM medium containing 10% FCS, and the cell suspension was dispensed to a 96-well plastic plate at a rate of 750 cells/l 00 microliters per well. The plate was incubated overnight in 5% CO2-95% air at 37° C. A drug was subjected to graded dilution in dimethylsulfoxide and further diluted with a DMEM medium containing 10% FCS. Then, the dilution was dispensed to the plate on which cells had been disseminated, at a rate of 100 microliters per well. The plate was incubated for further three days in 5% CO2-95% air at 37° C. Cell growth after incubation was measured by the WST-8 method (H. Tominaga, et al., Anal. Commun., 36, 47-50 (1999)). Here, the WST-8 method refers to a method in which 20 microliters of a WST-8 reagent solution is added to each well, incubation is conducted at 37° C. for 45 minutes, the plate is stirred, and the amount of formazan produced is measured by a calorimetric method to determine the inhibitory rate of the drug. The concentration for 50% growth inhibition (EC50, IM) of the compound was determined.

[3] abbreviates: HeLa S3, compound 1.0 μM + paclitaxel 1 nM.
Where [4] appears, read: Homo sapiens, HeLa S3, 72 h, read-out: Cell growth inhibitory effect by sole administration of the compound of Example (%).
Setting [5] is: HeLa S3, compound 3.0 μM + paclitaxel 1 nM.

T2 sequence (Q96GD4 whole entry): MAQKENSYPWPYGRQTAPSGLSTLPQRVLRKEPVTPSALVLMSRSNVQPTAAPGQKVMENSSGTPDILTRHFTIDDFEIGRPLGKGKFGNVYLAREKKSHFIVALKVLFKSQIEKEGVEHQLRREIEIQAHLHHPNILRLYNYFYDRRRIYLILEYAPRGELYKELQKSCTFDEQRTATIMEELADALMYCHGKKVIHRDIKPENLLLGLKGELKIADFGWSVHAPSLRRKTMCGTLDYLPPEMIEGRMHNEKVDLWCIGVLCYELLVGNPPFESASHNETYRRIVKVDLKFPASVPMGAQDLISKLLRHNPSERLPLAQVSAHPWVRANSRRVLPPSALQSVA

Broadly, the pIC50 is −log10 of the IC50, conventionally taken in molar units. Lower therefore signals a large IC50. Regarding `Cc1cc(Nc2cccc(CN3CCN(C(=O)c4cccc(C(F)(F)F)c4Cl)CC3)n2)n[nH]1` [Example 30, 6-((4-(2-chloro-3-(trifluoromethyl)benzoyl)piperazin-1-yl)methyl)-N-(5-methyl-1H-pyrazol-3-yl)pyridin-2-amine], the values for the pIC50 (at Aurora A; at Aurora B; in test [2]) were 8.96, 6.49 and 5.60, respectively. The “Cell growth inhibitory effect by combined administration of paclitaxel and the compound of Example (%)” value (“Cell growth inhibitory effect … (%)” for short) in test [1] (setting [3]) is 90.1%. In test [1] (setting [4]), the inhibition at 1 µM turned out to be 29.1%.

For `O=C(O)C(F)(F)F.O=C(c1cccc(Cl)c1Cl)N1CCN(Cc2cccc(Nc3ncns3)n2)CC1` [Example 36, 6-((4-(2,3-dichlorobenzoyl)piperazin-1-yl)methyl)-N-1,2,4-thiadiazol-5-ylpyridin-2-amine trifluoroacetate], the pIC50 against Aurora A is 8.59; against Aurora B, 5.49; in test [2] it was 5.17. For the same compound, the “Cell growth inhibitory effect … (%)” value in test [1] (setting [5]) is recorded as 83.4%. For the same compound, the inhibition at 3 µM in test [1] (setting [4]) is 17.2%.

As for `O=C(c1ccccc1C(F)(F)F)N1CCN(Cc2cccc(Nc3ncns3)n2)CC1` [Example 39, 6-((4-(2-(trifluoromethyl)benzoyl)piperazin-1-yl)methyl)-N-1,2,4-thiadiazol-5-ylpyridin-2-amine], the pIC50 was 7.17 at Aurora A, 5.04 against Aurora B and 4.96 in test [2]. Further, the “Cell growth inhibitory effect … (%)” value in test [1] (setting [5]) stood at 72.2%. The inhibition at 3 µM in test [1] (setting [4]) amounted to 5.4%.

For `O=C(c1cccc(C(F)(F)F)c1F)N1CCN(Cc2cccc(Nc3ncns3)n2)CC1` [Example 40, 6-((4-(2-fluoro-3-(trifluoromethyl)benzoyl)piperazin-1-yl)methyl)-N-1,2,4-thiadiazol-5-ylpyridin-2-amine], the results for the pIC50 (at Aurora A; against Aurora B; in test [2]) were 9.00, 5.72 and 5.19, respectively. Also, the “Cell growth inhibitory effect … (%)” value in test [1] (setting [3]) turned out to be 76.9%. Further, the inhibition at 1 µM in test [1] (setting [4]) is 6.5%.

Consider `O=C(c1cccc(Cl)c1F)N1C[C@@H]2C[C@H]1CN2Cc1cncc(Nc2cc[nH]n2)n1` [Example 46, 6-(((1S,4S)-5-(3-chloro-2-fluorobenzoyl)-2,5-diazabicyclo[2.2. 1]hept-2-yl)methyl)-N-1H-pyrazol-3-ylpyrazin-2-amine], for which the results for the pIC50 (at Aurora A; at Aurora B; in test [2]) were 8.21, 5.85 and 5.39, respectively. Besides, the “Cell growth inhibitory effect … (%)” value in test [1] (setting [3]) was determined as 75.0%. In addition, the inhibition at 1 µM in test [1] (setting [4]) turned out to be 8.5%.

`O=C(c1cccc(Cl)c1F)N1CCN(Cc2cncc(Nc3cc[nH]n3)n2)CC1` [Example 50, 6-((4-(3-chloro-2-fluorobenzoyl)piperazin-1-yl)methyl)-N-1H-pyrazol-3-ylpyrazin-2-amine]: the pIC50 is 8.66 at Aurora A, 5.27 on Aurora B and 5.44 in test [2]. The “Cell growth inhibitory effect … (%)” value in test [1] (setting [3]) was found to be 82.0%. Further, the inhibition at 1 µM in test [1] (setting [4]) was found to be 6%.

In the case of `Cc1cc(Nc2cncc(CN3CCN(C(=O)c4cccc(Cl)c4F)CC3)n2)n[nH]1` [Example 56, 6-((4-(3-chloro-2-fluorobenzoyl)piperazin-1-yl)methyl)-N-(5-methyl-1H-pyrazol-3-yl)pyrazin-2-amine], the pIC50 is 8.68 against Aurora A, 5.54 against Aurora B and 5.85 in test [2]. The “Cell growth inhibitory effect … (%)” value in test [1] (HeLa S3, compound 0.3 μM + paclitaxel 1 nM) amounted to 81.8%. The inhibition at 0.3 µM in test [1] (Homo sapiens, HeLa S3, 72 h, HeLa S3, compound 0.3 μM alone, read-out: Cell growth inhibitory effect by sole administration of the compound of Example (%)) amounted to 6.5%.

Turning to `O=C(c1cccc(Cl)c1F)N1CCN(Cc2cncc(Nc3nccs3)n2)CC1` [Example 58, 6-((4-(3-chloro-2-fluorobenzoyl)piperazin-1-yl)methyl)-N-thiazol-2-ylpyrazin-2-amine], the values for the pIC50 (at Aurora A; at Aurora B; in test [2]) were 8.32, 5.00 and 5.52, respectively. Also, in test [1] (setting [3]), the “Cell growth inhibitory effect … (%)” value is listed as 81.4%. In test [1] (setting [4]), the inhibition at 1 µM came to 0%.

For `O=C(c1ccco1)N1CCN(Cc2cccc(Nc3ncc(Cl)s3)n2)CC1` [Example 62], the pIC50 on Aurora A is 7.92; against Aurora B, 6.42; in test [2] it was 6.07. Moreover, the “Cell growth inhibitory effect … (%)” value in test [1] (HeLa S3, compound 0.1 μM + paclitaxel 1 nM) is 68.0%. In test [1] (Homo sapiens, HeLa S3, 72 h, HeLa S3, compound 0.1 μM alone, read-out: Cell growth inhibitory effect by sole administration of the compound of Example (%)), the inhibition at 0.1 µM was determined as 2.9%.

Regarding `O=C(c1cccs1)N1CCN(Cc2cccc(Nc3ncc(Cl)s3)n2)CC1` [Example 66, 6-((4-(2-thienylcarbonyl)piperazin-1-yl)methyl)-N-(5-chlorothiazol-2-yl)pyridin-2-amine], the results for the negative logarithm of the IC50 (pIC50) (on Aurora A; at Aurora B; in test [2]) were 8.47, 6.60 and 5.54, respectively. Also, the “Cell growth inhibitory effect … (%)” value in test [1] (setting [3]) is on record as 60.9%. For the same compound, the inhibition at 1 µM in test [1] (setting [4]) is 7.2%.

With `Cc1nc(C(=O)N2CCN(Cc3cccc(Nc4ncc(Cl)s4)n3)CC2)cs1` [Example 68, 6-((4-((2-methyl-thiazol-4-yl)carbonyl)piperazin-1-yl)methyl)-N-(5-chlorothiazol-2-yl)pyridin-2-amine], the values for the negative-log IC50 (pIC50) (on Aurora A; on Aurora B; in test [2]) were 7.96, 6.17 and 5.29, respectively. In addition, the “Cell growth inhibitory effect … (%)” value in test [1] (setting [5]) is listed as 71.8%. For the same compound, in test [1] (setting [4]), the inhibition at 3 µM was 27.3%.

Regarding `N#Cc1cccc(C(=O)N2CCN(Cc3cccc(Nc4ncc(Cl)s4)n3)CC2)c1` [Example 71, 6-((4-(3-cyanobenzoyl)piperazin-1-yl)methyl)-N-(5-chlorothiazol-2-yl)pyridin-2-amine], the negative logarithm of the IC50 (pIC50) against Aurora A is 8.52; against Aurora B, 6.43; in test [2], 5.52. Also, the “Cell growth inhibitory effect … (%)” value in test [1] (setting [3]) came to 60.7%. The inhibition at 1 µM in test [1] (setting [4]) was found to be 13.2%.
